pIC50, pKi: −log10 of the molar value.
How the values were obtained:
5-HT2C receptor = target: T1, 5-HT2C receptor (Homo sapiens, UniProt P28335); experiment: radioligand binding assay for 5-HT2C receptor ([3H]mesulergine); settings: competitive binding
T1 construct: expressed in transfected cells; host or cells: CHO-K1 (or COS-7); alternatively choroid plexus tissue
T1 sequence (P28335 33-458): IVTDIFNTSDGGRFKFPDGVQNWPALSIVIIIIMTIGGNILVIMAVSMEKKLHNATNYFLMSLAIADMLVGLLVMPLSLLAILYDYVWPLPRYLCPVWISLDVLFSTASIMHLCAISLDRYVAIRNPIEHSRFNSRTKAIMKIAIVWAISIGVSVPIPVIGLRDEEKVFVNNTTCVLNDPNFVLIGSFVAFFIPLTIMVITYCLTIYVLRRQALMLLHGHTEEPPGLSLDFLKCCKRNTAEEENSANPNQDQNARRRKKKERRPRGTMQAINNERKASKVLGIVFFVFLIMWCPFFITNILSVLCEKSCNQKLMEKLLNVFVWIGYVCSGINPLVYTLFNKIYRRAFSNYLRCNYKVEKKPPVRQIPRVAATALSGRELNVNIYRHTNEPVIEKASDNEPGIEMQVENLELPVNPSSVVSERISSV
Method: (§1) The effect of the compounds of the present invention on the neurochemical steady state was determined by in vitro investigations such as a radionuclide-marked radioligand binding assay for 5-HT2A (Bonhaus D. W. Br. J. Pharmacol. 1995, 115:622; Saucier C. J. Neurochem. 1997, 68:1998) and 5-HT2C receptors (Wolf W. A. J. Neurochem. 1997, 69:1449), in vitro binding assay for σ1 receptor (Thomson W. and Donn R. Arthritis Res. 2002, 4: 302-306) and by in vivo investigations in a tail suspension test (Vogel H. G. and Vogel W. H. Drug Discovery and Evaluation Pharmacological Assays, Springer 1997, 304), in amphethamine-induced hyperlocomotion in mice (Millan M. J. et al, 1998 J. Pharmacol. Exp. Ther. 287: 167-186), in a forced swim test in mice (Porsolt R. D. et al. Arch. Int. Pharmacodyn. 1977, 229:327-336), in meta-chlorophenyl piperazine (m-CPP) test on rats (Drug Dev. Res. 1989, 18:119-144), and in apomorphine, tryptamine, norepinephrine (ATN) test in rats (Arch. Int. […]
(§2) A small concentration of a radioligand having a great affinity for binding to a receptor was incubated with a tissue sample enriched with a certain receptor (1-5 mg of tissue) in a buffered medium (0.2-5 mL). […] When a binding balance was achieved, the receptors to which the radioligand was bound were separated from those to which said ligand was not bound, and the radioactivity of the receptor/radioligand complex was measured. […]

5-HT2A receptor = target: T2, 5-HT2A receptor (Homo sapiens, UniProt P28223); experiment: radioligand binding assay for 5-HT2A receptor ([3H]-ketanserin); settings: competitive binding
T2 construct: expressed in transfected cells; host or cells: CHO-K1 (or COS-7); alternatively human cortex tissue
Method: as §1, §2

T2 sequence (P28223 whole entry): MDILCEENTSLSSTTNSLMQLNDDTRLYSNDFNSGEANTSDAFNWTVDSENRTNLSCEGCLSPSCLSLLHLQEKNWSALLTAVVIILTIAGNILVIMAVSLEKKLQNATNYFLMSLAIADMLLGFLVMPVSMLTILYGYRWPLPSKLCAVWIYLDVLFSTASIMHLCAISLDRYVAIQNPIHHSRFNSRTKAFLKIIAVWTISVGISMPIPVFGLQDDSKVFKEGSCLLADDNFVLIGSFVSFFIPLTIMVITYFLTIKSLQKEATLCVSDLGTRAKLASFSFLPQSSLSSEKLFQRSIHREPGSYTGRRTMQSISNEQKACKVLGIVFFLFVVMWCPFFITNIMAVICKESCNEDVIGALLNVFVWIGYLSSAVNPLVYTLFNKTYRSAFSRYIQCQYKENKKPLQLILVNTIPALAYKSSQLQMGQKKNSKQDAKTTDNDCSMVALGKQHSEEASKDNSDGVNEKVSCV

- pIC50 (5-HT2C receptor; choroid plexus or recombinant 5-HT2C in CHO-K1, read-out: binding affinity to 5-HT2C serotonin receptor expressed as IC50 value): > 6.70
- pKi (5-HT2C receptor; choroid plexus or recombinant 5-HT2C in CHO-K1, read-out: binding affinity to 5-HT2C serotonin receptor, Ki value): > 7.00
- pIC50 (5-HT2A receptor; human cortex or recombinant 5-HT2A in CHO-K1, read-out: binding affinity to 5-HT2A serotonin receptor expressed as IC50 value): > 6.70
- pKi (5-HT2A receptor; human cortex or recombinant 5-HT2A in CHO-K1, read-out: binding affinity to 5-HT2A serotonin receptor, Ki value): > 7.00
SMILES: CN(C)CCOCc1cc2c([nH]1)-c1ccccc1Sc1ccccc1-2 [dimethyl-[2-(1H-8-thia-1-aza-dibenzo[e,h]azulen-2-ylmethoxy)-ethyl]-amine]

From US20070111968A1, “1-Aza-dibenzo[e,h]azulenes for the treatment of central nervous system diseases and disorders” (GLAXOSMITHKLINE ISTRAZIVACKI CENTAR ZAGREB D.O.O., priority 2003, published 2007)
